# Reference: ChEMBL document CHEMBL1201862, “PubChem BioAssay data set” (2004)
# Activity calls are given as the source filed them.
# What was measured:
# [1] = A549 cell cytotoxicity, dose response, cytotoxicity control, plate reader, cherry-pick, antagonist series (AID 743412); assay type: functional, cell-based
# [2] = HepG2 cell cytotoxicity, dose response, cytotoxicity control, plate reader, cherry-pick, antagonist series (AID 743416); assay type: functional, cell-based
# [3] = microbe, parasite or virus in culture; assay type: functional; details: Mycobacterium tuberculosis
# Streptococcus = test: Group A Streptococcus viability loss, dose response, counter-screen for streptokinase expression inhibitor project, luminescence, BacTiterGlo (AID 1915); assay type: functional, organism-based;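 note: potency for reduction of bacterial viability or growth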
# Streptokinase A = molecular target: T1, Streptokinase A (Streptococcus pyogenes serotype M1, UniProt P10520); test: S. pyogenes streptokinase expression inhibitors, potency, dose response, plasminogen activation absorbance, OD405 (AID 1914); assay type: functional, Streptococcus pyogenes M1 GAS;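 note: secreted streptokinase activity via plasminogen activation per viability signal from cell pellet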
# T1 sequence (P10520 whole entry): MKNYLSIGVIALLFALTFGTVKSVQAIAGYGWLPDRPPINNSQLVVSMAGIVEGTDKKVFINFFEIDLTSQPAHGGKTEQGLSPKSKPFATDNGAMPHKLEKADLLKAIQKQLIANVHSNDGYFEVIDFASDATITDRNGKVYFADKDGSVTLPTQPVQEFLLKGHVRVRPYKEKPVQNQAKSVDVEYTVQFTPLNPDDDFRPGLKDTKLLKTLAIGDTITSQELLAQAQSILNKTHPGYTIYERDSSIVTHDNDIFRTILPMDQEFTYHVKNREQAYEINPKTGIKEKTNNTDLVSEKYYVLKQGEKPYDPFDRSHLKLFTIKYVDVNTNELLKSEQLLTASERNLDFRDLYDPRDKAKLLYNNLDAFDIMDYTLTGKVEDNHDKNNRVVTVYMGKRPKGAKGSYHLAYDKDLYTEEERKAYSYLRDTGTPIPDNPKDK
# [4] = system: Streptococcus sp. 'group A'; test: growth inhibition of control SK(-) GAS strain, dose response, counter-screen for streptokinase expression inhibitor project, luminescence, kanamycin, BacTiterGlo, confirmation (AID 1900); assay type: functional, organism-based
# H9c2 = test: cells; assay type: functional, cell-based; details: Rattus norvegicus, H9c2, Myocardium;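 note: confirmatory concentration-response retest of ultra-high-throughput screening hits for modulation of myocardial damage; cell death induced by hydrogen peroxide oxidative stress; compound pretreatment for 60 min then peroxide exposure for 2 h; potency is for protecting the cells against peroxide damage rather than for killing them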
# Protein skinhead-1 = molecular target: T2, Protein skinhead-1 (Caenorhabditis elegans, UniProt P34707); assay type: functional
# T2 sequence (P34707 whole entry): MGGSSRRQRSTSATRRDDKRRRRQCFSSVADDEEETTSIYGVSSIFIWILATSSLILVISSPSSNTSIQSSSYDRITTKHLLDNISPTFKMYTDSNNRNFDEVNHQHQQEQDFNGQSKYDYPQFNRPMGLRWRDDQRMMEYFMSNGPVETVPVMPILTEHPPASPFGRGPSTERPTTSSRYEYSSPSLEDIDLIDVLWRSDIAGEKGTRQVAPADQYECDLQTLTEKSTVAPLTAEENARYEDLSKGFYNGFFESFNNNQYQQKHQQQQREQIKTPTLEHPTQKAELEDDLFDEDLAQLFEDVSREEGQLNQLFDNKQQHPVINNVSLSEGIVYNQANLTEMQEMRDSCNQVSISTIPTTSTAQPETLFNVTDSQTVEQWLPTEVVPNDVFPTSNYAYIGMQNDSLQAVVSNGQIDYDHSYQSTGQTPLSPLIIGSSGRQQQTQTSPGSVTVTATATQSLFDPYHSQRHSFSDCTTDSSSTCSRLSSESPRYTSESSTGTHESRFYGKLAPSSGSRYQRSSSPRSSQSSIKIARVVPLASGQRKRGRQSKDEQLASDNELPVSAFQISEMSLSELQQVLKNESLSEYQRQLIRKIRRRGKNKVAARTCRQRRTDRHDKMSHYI
# [5] = Shn3 3'UTR reporter inhibitors, dose response, cell-based, Clone20 osteoblasts, firefly luciferase, cherry-picked (AID 624132); assay type: functional;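 note: firefly luciferase luminescence from reporter carrying the Shn3 3'UTR in osteoblasts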
# [6] = HepG2 cell cytotoxicity, dose response, cytotoxicity control for Shn3 inhibitor project, CellTiter-Glo, cherry-picked (AID 624134); assay type: functional, cell-based
# [7] = control 3'UTR Renilla luciferase suppression, dose response, counter-screen for Shn3 inhibitor project, cell-based, Clone20-Shn3RL, cherry-picked (AID 624133); assay type: functional
# Nonstructural protein 1 = Nonstructural protein 1 (Influenza A virus, UniProt Q194T2); assay type: functional, Influenza A virus (A/California/07/2009(H1N1))
# Cytochrome P450 2C19 = Cytochrome P450 2C19 (Homo sapiens, UniProt P33261); test: Cytochrome panel assay with activity outcomes. Panel member name: p450-cyp2c19 Compounds with AC50 equal or less than 10 uM are considered active; assay type: functional; details: read-out: AC50
# [8] = molecular target: Voltage-dependent T-type calcium channel subunit alpha-1H (Homo sapiens, UniProt O95180); assay type: functional;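 note: channel activity triggered by adding a high calcium stimulation buffer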
# INS1 = test: beta cell apoptosis inhibitors, cytokine rescue, dose response, luminescence, retest (AID 449756); assay type: functional, cell-based; details: Rattus norvegicus;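 note: cell death triggered by IL-1 beta plus TNF-alpha plus IFN-gamma mixture; protective hits raise ATP signal compared with cytokine alone wells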
# [9] = Luminescence Cell-Based Dose Retest to Confirm Inhibitors of Cancer Stem Cells. [Related pubchem assays (depositor defined):AID2717, AID2721]; assay type: functional; details: Homo sapiens
# Chain of Voltage-dependent T-type calcium channel subunit alpha-1H (O95180 whole entry): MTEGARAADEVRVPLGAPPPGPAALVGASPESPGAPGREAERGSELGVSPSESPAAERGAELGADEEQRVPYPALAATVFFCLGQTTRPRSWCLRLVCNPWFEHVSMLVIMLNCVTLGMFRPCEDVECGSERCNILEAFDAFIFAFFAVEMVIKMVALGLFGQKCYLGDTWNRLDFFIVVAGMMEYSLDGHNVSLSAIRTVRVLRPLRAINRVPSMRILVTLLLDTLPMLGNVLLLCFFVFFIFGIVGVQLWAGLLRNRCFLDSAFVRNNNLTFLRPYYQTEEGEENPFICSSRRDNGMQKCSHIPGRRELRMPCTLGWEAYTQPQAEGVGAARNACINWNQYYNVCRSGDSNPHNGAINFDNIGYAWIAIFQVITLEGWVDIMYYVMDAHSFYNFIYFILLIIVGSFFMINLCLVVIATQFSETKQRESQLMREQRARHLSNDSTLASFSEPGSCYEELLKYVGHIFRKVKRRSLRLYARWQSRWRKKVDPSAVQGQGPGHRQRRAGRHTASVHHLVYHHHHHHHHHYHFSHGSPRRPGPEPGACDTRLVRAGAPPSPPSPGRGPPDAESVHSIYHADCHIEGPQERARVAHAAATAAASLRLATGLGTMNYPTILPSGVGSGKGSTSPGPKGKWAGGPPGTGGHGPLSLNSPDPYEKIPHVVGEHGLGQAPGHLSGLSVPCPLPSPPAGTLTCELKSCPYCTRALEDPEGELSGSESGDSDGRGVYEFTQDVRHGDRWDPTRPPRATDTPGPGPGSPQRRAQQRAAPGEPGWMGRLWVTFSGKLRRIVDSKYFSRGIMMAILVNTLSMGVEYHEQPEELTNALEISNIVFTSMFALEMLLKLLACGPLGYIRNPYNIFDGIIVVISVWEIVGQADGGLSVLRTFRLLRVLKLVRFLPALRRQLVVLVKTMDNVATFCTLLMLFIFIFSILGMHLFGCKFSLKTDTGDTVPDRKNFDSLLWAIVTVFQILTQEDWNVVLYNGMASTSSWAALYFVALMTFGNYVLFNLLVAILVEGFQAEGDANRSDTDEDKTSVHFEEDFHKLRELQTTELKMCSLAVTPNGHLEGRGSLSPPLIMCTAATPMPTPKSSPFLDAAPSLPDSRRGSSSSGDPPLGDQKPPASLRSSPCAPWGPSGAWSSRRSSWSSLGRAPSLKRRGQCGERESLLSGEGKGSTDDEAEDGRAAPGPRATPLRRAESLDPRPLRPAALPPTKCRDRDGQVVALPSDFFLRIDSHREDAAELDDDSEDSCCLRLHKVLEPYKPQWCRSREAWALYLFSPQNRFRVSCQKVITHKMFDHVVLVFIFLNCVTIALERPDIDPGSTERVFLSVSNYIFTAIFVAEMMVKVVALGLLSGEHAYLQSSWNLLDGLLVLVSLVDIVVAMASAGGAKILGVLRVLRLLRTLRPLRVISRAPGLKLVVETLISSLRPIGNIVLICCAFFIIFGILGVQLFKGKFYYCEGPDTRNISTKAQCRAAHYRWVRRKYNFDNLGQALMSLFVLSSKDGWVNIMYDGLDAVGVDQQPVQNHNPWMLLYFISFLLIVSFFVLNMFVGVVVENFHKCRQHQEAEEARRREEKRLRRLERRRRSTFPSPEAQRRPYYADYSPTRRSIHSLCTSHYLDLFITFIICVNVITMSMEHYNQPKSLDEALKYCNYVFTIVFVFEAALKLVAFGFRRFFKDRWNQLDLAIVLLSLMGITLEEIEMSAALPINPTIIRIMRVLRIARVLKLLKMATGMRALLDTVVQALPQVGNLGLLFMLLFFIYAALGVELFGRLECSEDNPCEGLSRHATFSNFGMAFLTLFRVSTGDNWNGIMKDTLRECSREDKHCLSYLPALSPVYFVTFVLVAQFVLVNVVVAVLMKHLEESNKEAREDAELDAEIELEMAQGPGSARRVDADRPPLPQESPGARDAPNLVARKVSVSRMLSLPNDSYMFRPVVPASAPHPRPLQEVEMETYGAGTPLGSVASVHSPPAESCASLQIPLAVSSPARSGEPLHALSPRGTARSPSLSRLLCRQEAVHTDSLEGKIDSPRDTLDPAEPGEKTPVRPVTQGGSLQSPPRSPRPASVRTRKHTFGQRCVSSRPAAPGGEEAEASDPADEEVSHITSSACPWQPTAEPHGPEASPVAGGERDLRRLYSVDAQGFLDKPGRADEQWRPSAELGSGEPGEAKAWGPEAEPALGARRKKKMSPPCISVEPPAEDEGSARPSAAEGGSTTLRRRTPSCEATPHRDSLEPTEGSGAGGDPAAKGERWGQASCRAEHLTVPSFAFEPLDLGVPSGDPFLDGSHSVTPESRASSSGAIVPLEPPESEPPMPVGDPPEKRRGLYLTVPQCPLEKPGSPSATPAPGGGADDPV
# Chain of Nonstructural protein 1 (Q194T2 whole entry): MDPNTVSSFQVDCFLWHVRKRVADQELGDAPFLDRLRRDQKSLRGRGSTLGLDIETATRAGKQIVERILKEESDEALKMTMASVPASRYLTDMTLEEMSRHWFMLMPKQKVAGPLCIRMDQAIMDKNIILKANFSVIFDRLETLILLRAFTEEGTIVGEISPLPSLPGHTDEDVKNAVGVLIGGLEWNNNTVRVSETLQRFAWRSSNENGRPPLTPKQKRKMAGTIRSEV
# Chain of Cytochrome P450 2C19 (P33261 whole entry): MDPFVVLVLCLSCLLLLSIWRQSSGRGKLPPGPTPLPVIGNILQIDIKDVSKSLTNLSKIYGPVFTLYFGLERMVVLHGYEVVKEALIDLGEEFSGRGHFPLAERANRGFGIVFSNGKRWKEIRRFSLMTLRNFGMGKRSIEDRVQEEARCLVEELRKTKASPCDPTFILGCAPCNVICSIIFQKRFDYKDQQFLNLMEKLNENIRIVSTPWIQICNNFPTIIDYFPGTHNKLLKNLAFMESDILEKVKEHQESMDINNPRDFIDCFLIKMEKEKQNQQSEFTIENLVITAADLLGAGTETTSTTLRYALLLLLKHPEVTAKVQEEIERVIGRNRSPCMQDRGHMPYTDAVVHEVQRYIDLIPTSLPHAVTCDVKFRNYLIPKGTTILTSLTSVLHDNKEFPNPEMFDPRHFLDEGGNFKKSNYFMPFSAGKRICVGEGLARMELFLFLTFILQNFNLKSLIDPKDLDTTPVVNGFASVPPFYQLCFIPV
compound,measurement,setting,value
O=C(c1ccc2c(c1)OCCO2)C1CCN(S(=O)(=O)c2ccc(F)cc2)CC1,AC50,[1],> 52 µM (inactive)
same,AC50,[2],> 52 µM (inactive)
COc1ccc(-c2nc(NC(=O)c3[nH]c(C)c(C(C)=O)c3C)sc2C)cc1,CC50,[3],> 40 µM (active)
CC(OC(=O)Cc1nnc(O)c2ccccc12)C(=O)Nc1ccc(Cl)cn1 (centres undefined),EC50,Streptococcus,23.1 µM (active)
same,EC50,Streptokinase A,> 150 µM (not active)
same,EC50,[4],9.99 µM (active)
same,IC50,H9c2,7.17 µM (active)
O=C(Nc1nc2c(s1)CCc1ccccc1-2)c1ccco1,IC50,Protein skinhead-1,> 100 µM (inactive)
Fc1ccc2[nH]c3c(NCc4ccccc4)ncnc3c2c1,AC50,[5],3.09 µM (active)
same,AC50,[6],30.1 µM (active)
same,CC50,[3],> 40 µM (active)
same,AC50,[7],13.1 µM (active)
O=[N+]([O-])c1ccc(Nc2ccccc2)cc1,IC50,Protein skinhead-1,12.7 µM (active)
Cc1ccc(NC(=O)CSc2n[nH]c(-c3ccccn3)n2)cc1,IC50,Nonstructural protein 1,6.74 µM (active)
O=C(Nc1ccccc1)N1CCCC(c2nc(-c3ccc(F)cc3)no2)C1 (centres undefined),AC50,Cytochrome P450 2C19,39.8 µM (inconclusive)
same,EC50,[8],1.52 µM (active)
S=C(NC1CCCCC1)N(CCc1nc2ccccc2[nH]1)C1CCCC1,EC50,[8],5.18 µM (active)
Cc1[nH]c2ccccc2c1C1C(c2ccccc2)=NN=C(C(C)C)N1O (centres undefined),EC50,[8],16.1 µM (active)
CC(c1ccccc1)N1C(=O)c2cccnc2C1=O (centres undefined),IC50,Protein skinhead-1,> 100 µM (inactive)
CCOC(=O)N1CCN(S(=O)(=O)c2ccc(C(=O)NNc3nc4cc(C)cc(C)c4s3)cc2)CC1,IC50,Nonstructural protein 1,> 100 µM (active)
same,AC50,INS1,3.67 µM (active)
same,AC50,[9],3.69 µM (active)
COC(=O)[C@@]12CCCCN1[C@H](c1ccc(-c3cc(C(C)=O)cs3)cc1)[C@H]1C(=O)N(C)C(=O)[C@H]12,IC50,H9c2,> 79 µM (inactive)
CC(Sc1nnc(NC2CCCCC2)s1)C(=O)Nc1ccc2c(c1)C(=O)c1ccccc1C2=O (centres undefined),CC50,[3],29.7 µM (active)
CCCn1c(=O)c(C(=O)NCCc2ccc(Cl)cc2)c(O)c2ccccc21,IC50,H9c2,> 79 µM (inactive)
O=C(CSC(=S)N1CCCC1)c1cc(Br)cc(Br)c1O,CC50,[3],> 40 µM (active)
Cc1ccc(N(C)C(=O)Oc2cccc3ccc(C)nc23)cc1,EC50,[8],12.3 µM (active)
O=C(CCn1c(=O)oc2ccccc21)N(Cc1ccccc1)c1ccccc1,IC50,H9c2,> 79 µM (inactive)
CCN(CC)S(=O)(=O)c1ccc(N(C)CCc2ccc(OC)c(OC)c2)nc1,IC50,Protein skinhead-1,> 100 µM (inactive)
